Measurements published in patent US7049302B1, “Compositions of CPG and saponin adjuvants and uses thereof” (Antigenics Inc., priority 1998, dated 2006).

Assays:
Format in all cases: in vivo, C57BL/6 mice
[1] = tested on: E.G7-OVA cells; assay: 51Cr release CTL assay, splenocytes of OVA-immunized mice stimulated in vitro with mitomycin C-treated E.G7-OVA cells; conditions: 1.25 μg QS-21 alone (suboptimal dose), with 25 μg OVA s.c. days 1, 15, 29; splenocytes day 42; FIG. 1
Description: C57BL/6 mice (5 per group, female, 8–10 weeks of age) were immunized by subcutaneous route at days 1, 15, and 29. The vaccines were 25 μg OVA antigen plus the indicated doses of adjuvant in a total volume of 0.2 ml phosphate-buffered saline. […] They were stimulated in vitro for 6 days with mitomycin C-treated E.G7-OVA cells and then used in a standard ^51Cr release CTL assay. E.G7-OVA cells (loaded with ^51Cr) were used as target cells. The background lysis of EL4 cells (not transfected by OVA) was subtracted from the lysis of E.G7-OVA cells to obtain a percent (%) antigen-specific lysis.

[2] = tested on: E.G7-OVA cells; assay: 51Cr release CTL assay, splenocytes of OVA-immunized mice stimulated in vitro with denatured OVA; conditions: 1.25 μg QS-21 alone (suboptimal dose), with 25 μg OVA, FIG. 2
Description: C57BL/6 mice (5 per group, female, 8–10 weeks of age) were immunized by subcutaneous route at days 1, 15, and 29. The vaccines were 25 μg OVA antigen plus the indicated doses of adjuvant in a total volume of 0.2 ml phosphate-buffered saline. […] (Weiner, et al., Proc. Natl. Acad. Sci. 94:10833 (1997).) Splenocytes were removed at day 42 for use as effector cells in the CTL assay. They were stimulated in vitro for 6 days with mitomycin C-treated E.G7-OVA cells and then used in a standard ^51Cr release CTL assay. E.G7-OVA cells (loaded with ^51Cr) were used as target cells. The background lysis of EL4 cells (not transfected by OVA) was subtracted from the lysis of E.G7-OVA cells to obtain a percent (%) antigen-specific lysis.
Splenocytes from mice immunized as described in FIG. 1 were used in a CTL assay. Splenocytes were stimulated in vitro with denatured OVA for six days prior to use in the CTL assay. The assay was carried out against E.G7-OVA cells as described in Example 1.

[3] = tested on: OVA; assay: Serum IgG1 and IgG2a titers to OVA by EIA; conditions: sera day 42
Description: Serum titers to OVA were determined by EIA on sera collected on day 42 from the mice immunized as described in Example 1. IgG subclass IgG1 and IgG2a titers were determined for individual mice (5 mice per group) and are plotted as a geometric mean titer.

Substance: QS-21
- antigen-specific lysis (CTL) [1]: no lysis
- antigen-specific lysis (CTL) [2]: no lysis
- OVA-specific IgG1 titer, enhancement over the unadjuvanted group ([3]; 10 μg QS-21 alone, geometric mean titer, among the highest groups, FIG. 3): ~10 fold
- OVA-specific IgG2a response ([3]; any QS-21 dose used alone): not detected
